Entries after “also recorded” stand apart in the source; their conditions may differ.
What was measured:
SOD1^G93A mice = assay: Body weight of SOD1G93A ALS mice; type: in vivo, mouse; details: systemic PrC-210 0.1 MTD, IP
Source text: This experiment was designed to illuminate whether PrC-210 is able to stop the progression of diseases which are based on protein aggregation, such as Amyotrophic Lateral Sclerosis (ALS). […] Weight loss was progressive and was in exponential decline along with onset of ALS motor symptoms. […] As ALS pathology is based upon protein aggregation, the findings in this experiment support our inventive concept that PrC-210 is able to suppress protein misfolding and thereby suppress the pathology of these diseases. This invention applies to all neuronal, organ specific and systemic diseases which are caused by protein aggregations, such as neurodegenerative diseases, local and systemic amyloidosis, Type II diabetes, cataract of the eye, etc.

C57 mice = assay: EAE model, paralysis score after immunization with MOG peptide; type: in vivo, mouse
Protocol: To show, that PrC-210 suppresses neuroinflammation which is caused by an autoimmune induction of the disease, PrC-210 was applied 24 hours before immunization of C57 mice against MOG peptide (FIG. 13A), and immediately after first paralysis symptoms developed from the autoimmunization against myelin.

[1] = test system: caspase 1, complement 3 (C3); assay: Inflammation markers in mouse brain after 8.68 Gy, PrC-210 given 24 hours after irradiation; type: in vivo, ICR mice; details: 8.68 Gy whole-body, 0.3 MTD i.p. 24 hours after irradiation
Protocol: To visualize the effect of radiation on the immune response of the mouse brain, ICR mice received 8.68 Gy whole-body radiation (FIG. 10) at Time “0.” O.3MTD, i.p. PrC-210 was administered 24 hours after irradiation. […] The same applied to the inflammation marker, complement 3 (C3) (FIG. 12B). […] Most important, this suppression was a direct suppression of the immune response and was not an indirect suppression through protection of proteins and lipids against damage. Radiation-induced protein damage would have triggered an apoptotic response, as it can be seen in the second peak of caspase 3/7 in FIG. 12C. Therefore, this experiment teaches that PrC-210 is able to enter the brain and directly suppresses post-irradiation inflammation.

Caspase 8, Caspase 3/7 = assay: Apoptosis markers in mice irradiated with 8.68 Gy, PrC-210 given before irradiation; type: in vivo, mouse
Protocol: To examine PrC-210-conferred protection in an animal model, we irradiated mice with 8.68 Gy and treated them with a 0.5MTD dose of PrC-210 30 minutes before irradiation. Normally, lethal radiation with 8.68 Gy leads to massive DNA damage and activation of the intrinsic apoptotic pathway. […] This means that the radiation insult didn't trigger a significant activation of the intrinsic apoptotic pathway nor did it trigger a mitotic arrest with p53 activation. […] This apoptotic suppression and protection lasted for the entire observation time of six days, which is a sign, that PrC-210 was still present after six days. When we looked at mouse plasma in the same experiment, we saw the same 6 days apoptotic suppression as in the brain in caspase 3/7 levels (FIG. 9F).

[2] = Consumption of PrC-210 thiol by hydrogen peroxide, with or without ammonium acetate; type: physicochemical; details: pH 7
Protocol: We believe that the increased reactivity of the thiol in the presence of negative charges, such as ammonium acetate, also occurs when PrC-210-thiol is in close proximity to other reactive structures, such as hydrogen peroxide. We have studied hydrogen peroxide, as it is a non-radical oxygen species with a much longer half-life than superoxide. We added hydrogen peroxide to an aqueous 5 mM solution of PrC-210 thiol at pH 7.

[3] = within its therapeutic window; cited from earlier work
Cytochrome C = Cytochrome C release in mouse heart after 8.68 Gy, PrC-210 given 24 hours after irradiation; type: in vivo; details: PrC-210 0.3 MTD given 24 hours post-irradiation
Protocol: Different from the first peak after 12 hours, this peak is not due to DNA damage and activation of the intrinsic apoptotic pathway, as there is neither an associated p53 nor 8-oxo-dG increase at 48 hours post-irradiation (data not shown), nor an activation of the intrinsic apoptotic pathway (FIG. 11B). This peak represents a massive damage of complex IV of the respiratory chain, which is located at the inner mitochondrial membrane. […] This discovery teaches us, that PrC-210 enters mitochondria and protects the proteins and lipids of the mitochondrial membranes against insults, insults which result in the release of cytochrome C. This invention applies to all diseases which are caused by damage of the mitochondria, such as aging and all age-related diseases, neurodegenerative diseases, diseases of the cardio-vascular system, such as arteriosclerosis, damage of the heart valves or main arteries, and in general to diseases caused by damage of the mitochondria membranes, the mitochondria DNA and proteins.

[4] = pKa of the two PrC-210 amines from NMR pH titration; type: physicochemical; details: pH titrations between pH 9.0 and 13.0; FIG. 3 legend: 3 pH units above physiological pH
Protocol: (§1) We established the chemical structure profile of PrC-210 using Nuclear Magnetic Resonance (NMR) spectroscopy experiments. […] This structural stability of the PrC-210 mono-thiol form in this pH range remained for at least the observed 24 hours. […] In our pH titrations between pH 9.0 and 13.0, we saw clear structural changes to PrC-210; from these progressive changes, we calculated that the pKas of the two PrC-210 amines are all substantially above the pH (pH 7.2) of physiological conditions (FIG. 3).

DBA/1J mice = assay: Paw swelling in DBA/1J mice immunized against collagen III; type: in vivo, mouse
Source text: To show further, that this suppression of chronic inflammation applies generally to other organs than the brain, DBA/1J mice immunized against collagen III where treated systemically and topically with PrC-210.

[5] = 1H NMR stability / thiol reactivity of PrC-210 with ammonium acetate (disulfide formation); type: physicochemical
[6] = Pharmacokinetics study with [14]C-labeled PrC-210, intravenous, male rats; type: in vivo; details: after 48 hr
Source text: We were also interested to see whether PrC-210-cysteine disulfide formation is transient or permanent; permanent PrC-210 hetero-disulfide formation with cellular proteins would be expected to have an impact on protein function and could translate into unwanted, toxic, side effects and should be seen as PrC-210 residues showing up as urinary or fecal metabolites. […] C labeled PrC-210, we found only minimal metabolism of PrC-210 (1.07%) after 48 hr (FIG. 7, unpublished data). It is well described that i) disulfide binding is reversible (see, e.g., Koji Aoyama, Int. J. Mol. Sci. 2021, 22 (9), 5010) and ii) that there are also two highly efficient thiol reducing systems in the cell (see, e.g., Cumming et al., The Journal of Biological Chemistry vol. 279, No. 21, Issue of May 21, pp. 21749-21758, 2004), which reduce disulfide bonds between glutathione and proteins in non-oxidative stress situations (see, e.g., Koji Aoyama, Int. J. Mol. Sci. 2021, 22 (9), 5010). Based upon both our experimental findings and the published literature, it would then be logical that PrC-210 disulfide bonds with proteins would be governed by the same chemical and enzymatic processes.

[7] = 1H NMR stability of PrC-210 in deuterated water under pH titration; type: physicochemical
Protocol: as §1

[8] = 0.5 MTD PrC-210 before irradiation

CNCC(CS)CNC [PrC-210]
body weight / weight loss (SOD1^G93A mice): immediate plateau in body weight loss | development and severity of paralysis symptoms (C57 mice; twice weekly intraperitoneal PrC-210 started 24 hours before immunization with MOG peptide): significantly suppressing | development and severity of paralysis symptoms (C57 mice; twice weekly intraperitoneal PrC-210 started when first paralysis symptoms were observed): significantly suppressing | inflammation marker complement 3 (C3) in mouse brain [1]: significantly suppressed | inflammasome marker caspase 1 in mouse brain ([1]; starting eight days after radiation): significantly suppressed | Caspase 3/7 level in mouse plasma (Caspase 8, Caspase 3/7; 0.5 MTD PrC-210 30 min before irradiation): suppressed to background | duration of apoptotic suppression and protection in brain (Caspase 8, Caspase 3/7; 0.5 MTD PrC-210, entire observation time): six | duration of apoptotic suppression (caspase 3/7) in mouse plasma (Caspase 8, Caspase 3/7; 0.5 MTD PrC-210, same experiment): 6 days | Caspase 3/7 level in mouse brain (Caspase 8, Caspase 3/7; [8]): suppressed to background | Caspase 8 level in mouse brain (Caspase 8, Caspase 3/7; [8]): suppressed to background | effect of ammonium acetate on hydrogen peroxide consumption of PrC-210 thiol ([2]; ammonium acetate (5 mM) added seconds before hydrogen peroxide (0.5 mM), 5 mM PrC-210 thiol): significant enhancement; also recorded: significantly enhanced | consumption of free PrC-210 thiol by hydrogen peroxide ([2]; aqueous 5 mM PrC-210 thiol): dose-dependent consumption | toxic side effects [3]: no toxic side effects | cytochrome C release in heart muscle (second peak, 48 hours post-irradiation) (Cytochrome C): suppress cytochrome C release to background | pKas of the two amines of PrC-210 [4]: > 7.2 | swelling of paws (DBA/1J mice; 370 mM PrC-210 applied topically, started at paw swelling score higher than 10): significantly reduced | swelling of paws (DBA/1J mice; twice weekly intraperitoneal injection of 0.075 MTD PrC-210, started with first paw symptoms): significantly reduced | half-life ([5]; aqueous solution with ammonium acetate, ammonium acetate added to aqueous PrC-210 mono-thiol solution, pH 7.2 (FIG. 6A)): 3.1 h | stability of PrC-210 with ammonium acetate and TCEP (1H NMR) ([5]; deuterated water with ammonium acetate and thiol blocker TCEP, pH 7.0, 24 hours): remains stable | structural change of PrC-210 with ammonium acetate (1H NMR) ([5]; deuterated water with ammonium acetate, pH 7.0, 1 hour and 24 hours): substantial structural changes within hours | PrC-210 half-life in water ([5]; water, previously observed): days | metabolism of PrC-210 [6]: 1.07% | stability at high pH after 72 hours (1H NMR) ([7]; deuterated water, pH 9.0, 72 hrs): significant change; also recorded: some instability | effect of the thiol blocker TCEP on PrC-210 stability ([7]; water, pH 9.0, 72 hr, TCEP added, data not shown): doesn't influence the PrC-210 stability

From patent publication US20260232608A1, “AMINOTHIOLS FOR THE TREATMENT OF CONDITIONS CHARACTERIZED BY PROTEIN MISFOLDING OR AGGREGATION, MITOCHONDRIAL DYSFUNCTION, OR CHRONIC INFLAMMATION” (Obvia Pharmaceuticals, Ltd., priority 2023, published 2026)
